{
  "source": "paper PMC4526890",
  "about": "“Crystal structures of Mycobacterium tuberculosis GlgE and complexes with non-covalent inhibitors” (Scientific Reports, 2015)",
  "molecular_target": "T1, Mtb GlgE (Mycobacterium tuberculosis, UniProt P9WQ17)",
  "T1 construct": "full-length wild type, N-terminal His tag (modified pET-28), E. coli T7 Rosetta; homodimer, intermolecular C29 disulfide in crystal",
  "T1 sequence (P9WQ17 1-700)": "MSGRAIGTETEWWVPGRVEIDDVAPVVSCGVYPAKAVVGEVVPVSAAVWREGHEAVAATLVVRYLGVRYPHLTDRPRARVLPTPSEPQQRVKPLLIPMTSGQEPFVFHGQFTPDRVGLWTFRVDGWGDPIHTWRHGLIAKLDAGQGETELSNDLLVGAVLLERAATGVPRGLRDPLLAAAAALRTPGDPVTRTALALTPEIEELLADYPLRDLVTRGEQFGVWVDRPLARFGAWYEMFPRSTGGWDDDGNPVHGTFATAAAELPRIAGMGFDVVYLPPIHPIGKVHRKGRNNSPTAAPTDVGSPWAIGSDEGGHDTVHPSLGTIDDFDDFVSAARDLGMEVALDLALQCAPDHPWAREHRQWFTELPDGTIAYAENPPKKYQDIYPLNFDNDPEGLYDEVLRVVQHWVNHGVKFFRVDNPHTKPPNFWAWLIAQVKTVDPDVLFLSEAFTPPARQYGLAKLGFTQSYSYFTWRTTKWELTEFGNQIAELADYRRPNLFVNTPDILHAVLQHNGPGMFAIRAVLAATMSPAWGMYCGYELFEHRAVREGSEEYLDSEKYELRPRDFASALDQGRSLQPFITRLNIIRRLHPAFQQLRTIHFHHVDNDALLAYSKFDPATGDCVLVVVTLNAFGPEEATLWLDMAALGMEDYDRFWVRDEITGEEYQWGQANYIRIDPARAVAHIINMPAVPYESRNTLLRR",
  "experiment": "X-ray crystal structure, […] Å, crystal soak",
  "type": "binding",
  "settings": "10 mM ligand, 1 h soak of maltose co-crystal; acceptor glucan site about 26 Å from M1P site; ternary complex with maltose",
  "data": [
    {"compound": "OC[C@H]1O[C@H](O[C@H]2[C@H](O)[C@@H](O)[C@@H](O[C@H]3[C@H](O)[C@@H](O)[C@@H](O[C@H]4[C@H](O)[C@@H](O)[C@@H](O[C@H]5[C@H](O)[C@@H](O)[C@@H](O[C@H]6[C@H](O)[C@@H](O)C(O)O[C@@H]6CO)O[C@@H]5CO)O[C@@H]4CO)O[C@@H]3CO)O[C@@H]2CO)[C@H](O)[C@@H](O)[C@@H]1O", "note": "(stereo partly shown) [M6, maltohexaose]", "values": [
      {"measurement": "X-ray crystal structure, 4.0 Å, crystal soak", "value": "ternary complex with Mtb GlgE bound to maltose and maltohexaose (GlgE-M6) was solved"}
    ]}
  ]
}
